According to article PMC2628638, “Catalytic inhibition of topoisomerase II by a novel rationally designed ATP-competitive purine analogue” (BMC Chemical Biology, 2009):
Values belong to the molecule of their own block, whether it stands above or below them.

Key:
[1] = target: T1, topoisomerase II beta (Homo sapiens, UniProt Q02880); test: Affinity precipitation with biotinylated purine analogue 2 from HL-60 nuclear extracts; assay type: binding; details: for competition of the interaction of biotinylated purine analogue 2 with topoisomerase II beta: 1 μM biotinylated analogue 2, competitor in excess (10 μM), QAP 1 also at equimolar concentration
T1 construct: endogenous in cells; host or cells: HL-60 nuclear extract
T1 sequence (Q02880 whole entry): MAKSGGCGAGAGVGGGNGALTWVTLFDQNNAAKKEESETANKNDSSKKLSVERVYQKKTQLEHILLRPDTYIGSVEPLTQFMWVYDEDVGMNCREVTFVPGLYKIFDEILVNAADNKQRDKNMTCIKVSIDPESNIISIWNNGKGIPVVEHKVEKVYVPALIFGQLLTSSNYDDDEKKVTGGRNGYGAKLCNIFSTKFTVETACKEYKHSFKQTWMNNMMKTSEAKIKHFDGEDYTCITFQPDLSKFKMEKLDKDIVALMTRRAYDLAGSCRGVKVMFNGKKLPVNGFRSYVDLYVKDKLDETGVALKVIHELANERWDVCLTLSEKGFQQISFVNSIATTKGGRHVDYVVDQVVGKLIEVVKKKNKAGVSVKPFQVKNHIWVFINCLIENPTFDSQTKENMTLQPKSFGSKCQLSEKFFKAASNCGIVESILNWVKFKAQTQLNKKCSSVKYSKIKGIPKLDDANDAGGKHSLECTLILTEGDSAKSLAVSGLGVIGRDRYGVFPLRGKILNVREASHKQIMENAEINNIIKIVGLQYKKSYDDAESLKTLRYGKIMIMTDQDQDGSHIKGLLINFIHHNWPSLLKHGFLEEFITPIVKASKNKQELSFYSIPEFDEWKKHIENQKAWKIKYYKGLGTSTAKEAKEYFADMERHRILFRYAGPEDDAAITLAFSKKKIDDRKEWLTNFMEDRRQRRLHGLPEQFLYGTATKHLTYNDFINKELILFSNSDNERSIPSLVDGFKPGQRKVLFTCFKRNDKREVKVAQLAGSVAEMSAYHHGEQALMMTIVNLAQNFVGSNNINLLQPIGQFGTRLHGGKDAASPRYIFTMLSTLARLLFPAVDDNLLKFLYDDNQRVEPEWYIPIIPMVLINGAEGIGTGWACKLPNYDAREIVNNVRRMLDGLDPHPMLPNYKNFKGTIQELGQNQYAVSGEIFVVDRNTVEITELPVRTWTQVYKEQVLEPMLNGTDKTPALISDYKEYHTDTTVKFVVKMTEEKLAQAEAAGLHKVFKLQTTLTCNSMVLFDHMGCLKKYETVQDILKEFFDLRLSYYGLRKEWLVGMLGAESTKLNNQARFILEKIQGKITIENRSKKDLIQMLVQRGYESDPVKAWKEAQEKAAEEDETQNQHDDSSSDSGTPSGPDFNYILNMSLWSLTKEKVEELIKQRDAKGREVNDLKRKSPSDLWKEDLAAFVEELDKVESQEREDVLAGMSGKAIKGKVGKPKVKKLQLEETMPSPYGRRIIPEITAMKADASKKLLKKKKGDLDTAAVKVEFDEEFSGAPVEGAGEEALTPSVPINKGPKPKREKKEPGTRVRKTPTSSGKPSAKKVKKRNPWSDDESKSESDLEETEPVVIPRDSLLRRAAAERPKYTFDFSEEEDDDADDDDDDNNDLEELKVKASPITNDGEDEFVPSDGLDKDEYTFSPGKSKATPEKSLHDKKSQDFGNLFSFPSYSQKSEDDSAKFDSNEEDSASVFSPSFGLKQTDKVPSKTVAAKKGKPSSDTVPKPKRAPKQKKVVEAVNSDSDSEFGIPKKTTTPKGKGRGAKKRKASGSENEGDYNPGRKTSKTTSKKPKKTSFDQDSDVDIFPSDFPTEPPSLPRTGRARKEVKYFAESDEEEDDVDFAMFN
Description: (§1) Topoisomerase II α and β were affinity precipitated with biotinylated inhibitor as follows. Exponentially growing HL-60 cells were collected on ice and incubated with hypotonic buffer (10 mM HEPES pH 7.5, 1.5 mM MgCl2, 10 mM KCl, 0.5 mM DTT, 0.5 mM PMSF, 1× protease inhibitor cocktail (Complete Mini, Roche Diagnostics GmbH)) for 15 minutes, then 0.6% v/v NP-40 was added and cells were disrupted using a Dounce homogenizer. Lysates were transferred to 1.5 ml Protein LoBind Eppendorf tubes and nuclei were collected after centrifugation at 8000 rpm for 10 minutes and washed twice with hypotonic buffer. To extract and release chromatin associated topoisomerase II nuclei were incubated for 30 minutes in DNAse buffer (20 mM Tris HCl pH 7.5, 5 mM MgCl2, 1 mM CaCl2, 25 mM NaCl, 0.5 mM EDTA, 1% NP-40, 1 mM DTT, 1 × protease inhibitor cocktail, 0.1 mM PMSF) containing 40 U DNAse I (Roche Diagnostics GmbH) followed by addition of twice concentrated nuclear extraction buffer (20 mM HEPES pH 7.5, 3 mM MgCl2, 20 mM KCl, 50 mM β-glycerophosphate, 840 mM NaCl, 1 mM EDTA, 50 mM PNPP, 1 mM DTT, 1 mM PMSF) and rotation for 1 h in the coldroom. The soluble fraction was obtained following centrifugation at 13000 rpm for 15 minutes. 25 μg nuclear extract were used for the affinity precipitation. The salt concentration was adjusted to 150 mM with nuclear extraction buffer (without NaCl) and the sample volume was toped off to 200 μl with precipitation buffer (50 mM HEPES pH 7.4, 150 mM NaCl, 25 mM β-glycerophosphate, 25 mM NaF, 5 mM EGTA, 1 mM EDTA, 15 mM PPI, 1 mM PMSF). Compounds were preincubated for 30 minutes prior addition of biotinylated purine analogue 2 for 2 h. Streptavidin agarose beads (Novagen, 69203) were washed twice with PBS, blocked for 30 minutes with PBS containing 1% BSA, washed twice with PBS and finally with precipitation buffer. 40 μl equilibrated streptavidin agarose beads were added to the sample and incubation was continued for 1 h. Beads were pelleted by centrifugation at 7000 rpm for 5 minutes and washed thrice with precipitation buffer. During the last wash the beads were transferred to a new tube and the bound fraction was released by boiling for 5 minutes in Laemmli sample buffer. Topoisomerase II α and β were detected by Western blot as described below.

[2] = target: T2, topoisomerase II alpha (Homo sapiens, UniProt P11388); test: as above; assay type: binding; set-up: endogenous in cells; host or cells: HL-60 nuclear extract; details: for competition of the interaction of biotinylated purine analogue 2 with topoisomerase II alpha: 1 μM biotinylated analogue 2, competitor in excess (10 μM), QAP 1 also at equimolar concentration
T2 sequence (P11388 whole entry): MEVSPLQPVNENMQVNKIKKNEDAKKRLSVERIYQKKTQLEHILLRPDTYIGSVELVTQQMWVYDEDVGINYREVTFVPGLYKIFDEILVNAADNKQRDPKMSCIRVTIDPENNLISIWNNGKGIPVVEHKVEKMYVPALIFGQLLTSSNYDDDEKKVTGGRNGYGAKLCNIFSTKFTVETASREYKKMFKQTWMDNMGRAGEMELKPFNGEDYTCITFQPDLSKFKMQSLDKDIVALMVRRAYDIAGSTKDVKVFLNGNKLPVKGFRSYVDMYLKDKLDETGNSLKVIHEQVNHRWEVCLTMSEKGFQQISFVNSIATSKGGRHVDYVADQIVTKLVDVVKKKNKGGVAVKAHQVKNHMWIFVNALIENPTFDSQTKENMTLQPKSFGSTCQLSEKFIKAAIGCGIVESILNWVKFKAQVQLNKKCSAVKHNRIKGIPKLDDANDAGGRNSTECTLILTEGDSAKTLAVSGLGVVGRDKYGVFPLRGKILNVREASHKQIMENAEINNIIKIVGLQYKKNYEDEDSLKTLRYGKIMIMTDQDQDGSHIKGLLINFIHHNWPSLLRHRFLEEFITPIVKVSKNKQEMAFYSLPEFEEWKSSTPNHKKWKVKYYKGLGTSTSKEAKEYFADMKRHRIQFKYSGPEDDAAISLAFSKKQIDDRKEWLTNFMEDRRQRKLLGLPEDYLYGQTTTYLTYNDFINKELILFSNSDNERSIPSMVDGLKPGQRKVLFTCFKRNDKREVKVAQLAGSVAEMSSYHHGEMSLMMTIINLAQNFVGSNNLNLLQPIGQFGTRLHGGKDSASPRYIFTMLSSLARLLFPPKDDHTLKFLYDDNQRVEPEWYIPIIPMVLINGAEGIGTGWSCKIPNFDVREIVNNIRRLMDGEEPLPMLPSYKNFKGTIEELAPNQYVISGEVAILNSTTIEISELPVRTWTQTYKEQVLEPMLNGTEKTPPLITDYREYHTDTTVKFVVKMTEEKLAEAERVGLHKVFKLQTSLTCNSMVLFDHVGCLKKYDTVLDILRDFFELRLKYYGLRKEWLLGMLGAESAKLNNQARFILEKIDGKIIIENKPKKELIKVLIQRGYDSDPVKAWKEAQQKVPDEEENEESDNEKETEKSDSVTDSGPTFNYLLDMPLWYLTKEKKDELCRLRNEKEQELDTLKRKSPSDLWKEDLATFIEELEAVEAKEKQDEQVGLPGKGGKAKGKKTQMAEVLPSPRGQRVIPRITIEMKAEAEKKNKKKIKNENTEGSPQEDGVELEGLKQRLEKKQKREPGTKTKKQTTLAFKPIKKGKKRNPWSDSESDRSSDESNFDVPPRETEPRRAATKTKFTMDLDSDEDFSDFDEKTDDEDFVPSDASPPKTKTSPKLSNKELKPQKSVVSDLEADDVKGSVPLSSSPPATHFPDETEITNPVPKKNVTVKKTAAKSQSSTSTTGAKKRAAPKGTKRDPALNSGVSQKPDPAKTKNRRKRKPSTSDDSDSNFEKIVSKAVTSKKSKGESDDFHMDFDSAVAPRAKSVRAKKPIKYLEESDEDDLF
Description: as §1

[3] = target: T2, topoisomerase II alpha; test: DNA-dependent ATPase assay (malachite green); assay type: biochemical; set-up: screened in an ATPase assay using purified full length tagged human topoisomerase II alpha; made in house; host or cells: Sf21 insect cells, baculovirus (pFastBac1)
Description: DNA-dependent ATP hydrolysis of human topoisomerase II α was monitored by measuring the production of inorganic phosphate using acidic molybdate and malachite green. Specific ATPase activity of every batch was tested in a time-course to determine optimal incubation times and enzyme concentrations within the linear range of the assay. Reactions thus contained 10 – 40 nM topoisomerase II (dimer concentration) in reaction buffer (10 mM Tris HCl pH 7.5, 175 mM KCl, 0.1 mM EDTA, 5 mM MgCl2, 2 mM DTT, 2.5% glycerol and 1.7 nM supercoiled pUC18). The specific activity of the human topoisomerase II α enzyme measured in the ATPase assay was 0.24 μmol PO4·min^-1·mg^-1. […] Compounds at the indicated concentrations were added as serial dilutions prepared in DMSO and preincubated for 10 minutes at 37°C on an orbital shaker. Reactions were started by the addition of 400 μM ATP (Sigma, catalog number A2383) and allowed to proceed for 30 minutes. Reactions were terminated by the addition of 200 μl malachite green reagent and the OD was read immediately at 630 nm on a SpectraMax Plus microtiter plate reader using SoftMax Pro software (Molecular Devices). For kinetic analysis, reactions were carried out in duplicate as described above either in the presence of vehicle (DMSO) or QAP 1. Following a preincubation for 5 minutes, ATP was added at the indicated concentrations to start the reactions, which were allowed to proceed for 17 minutes before stopping and reading as above. From these values the OD values obtained at each respective ATP concentration without enzyme were subtracted for background correction. […] A compromise was found by carrying out the competition experiments with a single concentration of the inhibitor that gave a good inhibition of enzyme activity while keeping a measurable signal. The equations used to fit these experiments are: […]
Each competition experiment was fitted (Grafit version 5.04 – Erithacus Software) with these 3 equations and the models that gave unrealistic inhibition constants (above 10 mM) and/or large standard errors (similar to the value of the fitted parameter) were rejected. Then, the F-test was carried out to identify the best fitting model. An alternative method was used to determine the mode of action of the inhibitor. Dose-response experiments were carried out at different ATP concentrations and the corresponding IC50s determined. According to the Cheng-Prusoff equation for linear competitive inhibition: […]
The IC50 of a competitive inhibitive inhibitor should increase in a linear fashion with the concentration of ATP. The measured IC50s were then plotted in function of the ATP concentrations and linear regression analyses were carried out. […] Mean Km and Vmax values were calculated from two independent experiments.

[4] = test system: HCC1937 BRCA1 mutant and HCC1937 BRCA1 reconstituted cells; test: Clonogenic growth assay (WST-1, colony counting); assay type: cell-based; details: continuous treatment for 9 days, WST-1 and colony numbers
Description: HCC1937 BRCA1 mutant and HCC1937 BRCA1 reconstituted breast ductal carcinoma cells were cultured in RPMI-1640 medium supplemented with 10% fetal calf serum, 2 mM L-glutamine, 1 mM sodium pyruvate, 4.5 g/l glucose and 1% (v/v) penicillin/streptomycin. Status of BRCA1 was corroborated by immunoprecipitation using 50 μg nuclear extracts and 1 μg mouse monoclonal antibody MS110 (ab16780, Abcam Inc., Cambridge, MA), which is directed towards the amino-terminus of the protein. Blots were probed with BRCA1 carboxy-terminal specific mouse monoclonal antibody D9 (sc-6954, Santa Cruz Biotechnologies, Santa Cruz, CA) and, following stripping, re-probed with antibody MS110. For assays, 5000 cells in 3 ml medium were seeded per well of 6 well plates in duplicates. The day after, vehicle (DMSO) or compounds were added. After one week medium was exchanged and vehicle or compounds were re-added for an additional two days. To assess proliferation the medium in each well was replaced with 1 ml medium containing 100 μl WST-1 reagent and incubation for 20 minutes at 37°C. Of each sample 110 μl supernatant were transferred into a 96 well plate and the OD was read at 450 nm (filter at 630 nm) on a SpectraMax Plus microtiter plate reader using SoftMax Pro software (Molecular Devices). For background correction, the blank value consisted of 100 μl medium containing 10 μl WST-1. Thereafter, colonies were stained by removing medium, washing cells once with PBS and incubation with 1 ml crystal violet solution for 30 minutes at room temperature. Cells were washed twice with PBS and colonies were counted using an Artec Counter (Model 880, Artec, Dyntatech Laboratories Inc.) with diameter cut-off set to 0.2 mm. Data were expressed as growth or colony numbers relative to vehicle control treatments (100%).

[5] = 1 μM biotinylated compound, HL-60 nuclear extracts

- pull down of topoisomerase II beta by biotinylated compound [1, 5]: pull down
- pull down of topoisomerase II alpha by biotinylated compound [2, 5]: pull down
Structure (SMILES): CCc1nc2c(NC(C)(C)C)nc(Nc3ccc4nc(OCCN5CCN(C(=O)CCOCCOCCOCCNC(=O)CCCC[C@@H]6SC[C@@H]7NC(=O)N[C@@H]76)CC5)sc4c3)nc2[nH]1 [purine analogue 2]

- competition of the interaction of biotinylated purine analogue 2 with topoisomerase II beta [1]: not
- competition of the interaction of biotinylated purine analogue 2 with topoisomerase II alpha [2]: not
- activity in the ATPase assays ([3]; result in words): inactive
Structure (SMILES): CCc1nc2c(N3CCSCC3)nc(Nc3ccc4ncsc4c3)nc2[nH]1 [purine analogue 4]

- competition of the interaction of biotinylated purine analogue 2 with topoisomerase II beta [1]: lost
- competition of the interaction of biotinylated purine analogue 2 with topoisomerase II alpha [2]: lost
- IC50 ([3]; full length tagged human topoisomerase II alpha, 400 μM ATP): 432 ± 30 nM
Structure (SMILES): CCc1nc2c(NC(C)(C)C)nc(Nc3ccc4ncsc4c3)nc2[nH]1 [purine analogue 3]

Structure (SMILES): C=CCNC1=C2C[C@@H](C)C[C@H](OC)[C@H](O)[C@@H](C)/C=C(\C)[C@H](OC(N)=O)[C@@H](OC)/C=C\C=C(/C)C(=O)NC(=CC1=O)C2=O [17-AAG, reference compound]
- sensitivity of BRCA1 mutant versus BRCA1 reconstituted HCC1937 cells [4]: to a similar extent
